# Experimental data from the METLIN SMRT retention time set (Domingo-Almenara et al. 2019).
# Assay: gradient 5% acetonitrile 3 min, to 50% in 2 min, to 85% in 15 min, held 3 min, 100 µL/min
# Details: column: Zorbax Extend-C18 2.1 x 50 mm; eluents: water / acetonitrile, 0.1% formic acid
# In short: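 Over 3 months, pure standards in mixtures of ~100 molecules were run by HPLC coupled to a quadrupole time-of-flight mass spectrometer in positive and negative ionization mode. The column was a Zorbax Extend-C18 (2.1 × 50 mm, 1.8 μm) at 100 μL/min, eluted with water and acetonitrile each holding 0.1% formic acid, with 40 μL dead and 900 μL dwell volumes. Retention time was determined from adduct peaks chosen by software and checked manually.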
row,RP-LC retention time [s],SMILES
1,735,Cc1csc(C(=O)Nc2ccc(N3CCCN(C(=O)C4CC4)CC3)cc2)c1
2,929,COc1cccc(Nc2c(-c3cccc(O)c3)nc3cnccn23)c1
3,703,O=C(NCc1ccccn1)c1ccc2c(c1)CCCN2S(=O)(=O)c1ccccc1
4,756,O=C(NCc1ccco1)c1cccc(Nc2c(-c3ccccc3)nc3cnccn23)c1
5,1020,CCN(CC)c1nc2cc(C(=O)NCc3ccc(C)o3)ccc2c(=O)n1-c1ccccc1
6,1350,CCOc1ccc(-n2nnc(-c3nc(-c4ccc(C(C)C)cc4)cs3)c2N)cc1
7,719,Cc1cccn2c(Nc3ccc4c(c3)OCCO4)c(-c3ccccc3O)nc12
8,1030,CCN1C(=O)c2cc(S(=O)(=O)NCc3cccc(Cl)c3)ccc2Oc2cccnc21
9,1010,Cc1c(-c2noc(-c3ccc4cc[nH]c4c3)n2)nnn1Cc1ccccc1
10,805,O=C(c1ccc(Cl)cc1)N1CCC(n2c(-c3ccco3)nc3cccnc32)C1 (stereo not given)
11,839,O=S(=O)(Cc1ccccc1F)N1CCC(c2noc(-c3ccncc3)n2)C1 (stereo not given)
12,946,Cc1ccc(N2CC(c3noc(-c4cccs4)n3)CC2=O)cc1 (stereo not given)
13,791,Cn1cc(C2=CCN(C(=O)NCc3cccc(F)c3)CC2)c2cccnc21
14,901,Cc1ccc(N2CCN(Cc3nc(-c4ccc(N5CCCCC5)nc4)no3)CC2)cc1
15,1240,Cc1ccc(-c2csc(NC(=O)c3ccc(C)c(C)c3)n2)cc1
16,696,Cc1c(-c2cccc(NC(=O)c3cccc(Br)c3)c2)nc2ncccn12
17,862,CCOC(=O)c1cc2n(n1)CC(C)(C(=O)NC1CCCC1)N(c1cccc(F)c1)C2=O (stereo not given)
18,942,Cc1ccc(S(=O)(=O)N2CCc3ccc(NC(=O)Cc4cccs4)cc3C2)cc1
19,1100,Cc1ccc(Nc2c(-c3cccc([N+](=O)[O-])c3)nc3ccc(Cl)cn23)cc1
20,679,CN(C)c1ccc2c(c1)CN(C(=O)C1COc3ccccc3O1)CCO2 (stereo not given)
21,610,Cc1ccc2nc(C3CN(C(=O)COc4ccc(Cl)cc4Cl)C3)[nH]c2c1
22,944,CCc1ccc(NC(=O)C2CCN(S(C)(=O)=O)c3cc(Cl)ccc3O2)cc1 (stereo not given)
23,715,Cc1noc(-c2ccc(=O)n(C(C)C)n2)n1
24,1130,O=c1c2ccccc2c(-c2nc(-c3cccnc3)no2)cn1-c1cccc(Cl)c1
25,647,CCOC(=O)c1nc(NCCCN2CCN(c3ccc(F)cc3)CC2)c2ccccc2n1
26,622,CN(C)c1cc(OC2CCN(C(=O)c3cccc4[nH]ccc34)C2)ncn1 (stereo not given)

row,RP-LC retention time [s],SMILES
1,1080,O=c1c2sccc2n(Cc2nc(-c3ccc(Cl)c(F)c3)no2)c(=O)n1-c1ccc(F)cc1
2,952,O=C(Cn1cccc(-c2nc(-c3ccc(Br)cc3)no2)c1=O)NCc1ccc(F)cc1
3,855,Cc1ccc(NC(=O)NC2CCN(c3ccccc3)C2=O)cc1F (stereo not given)
4,780,COc1ccc(-c2cn3c(CC(=O)Nc4cc(OC)ccc4OC)csc3n2)cc1
5,949,O=c1c2nc(-c3ccc(F)cc3F)cn2ccn1-c1cccc(Cl)c1
6,787,Cc1ccc(CNC(=O)c2nc3cccnc3n(C)c2=O)cc1
7,761,Cn1nc(-c2nc(C(C)(C)C)no2)ccc1=O
8,672,CCC(C)NC(=O)CCNc1c(-c2ccc(C)cc2)nc2cnccn12 (stereo not given)
9,645,Cc1oc(-c2ccc(C(=O)NCCCN3CCN(C)CC3)cc2)nc1CSc1ccccc1
10,678,CCCNC(=O)Cn1ccc2ccc(-c3nnc(C)o3)cc21
11,774,O=C(NCCc1csc(-c2cccs2)n1)C1CCN(C(=O)Cc2ccc(F)cc2)CC1
12,668,CCc1cc(=O)n(CC(=O)N2CCN(c3ccc(OC)cc3)CC2)c(N2CCOCC2)n1
13,969,COc1ccc(-c2ncc3c(n2)CCN(C(=O)c2ccc(Cl)cc2)C3)cc1
14,856,Cc1nn(C)c(C)c1S(=O)(=O)N1CCC(c2noc(-c3ccccc3)n2)C1 (stereo not given)
15,919,COc1cccc(-c2ccnc3nc(-c4ccccc4)nn23)c1
16,628,CN1C(=O)Cc2cc(NC(=O)CN3C(=O)c4ccccc4C3=O)ccc21
17,974,Cc1cc(C(=O)Nc2ccccc2I)n(-c2ccccc2)n1
18,958,CCOC(=O)Cn1c(=O)c2c(nc3n2CC(C)CN3c2ccc(OCC)cc2)n(C)c1=O (stereo not given)
19,1160,Cn1nccc1-c1cccc(-c2noc(/C=C/c3cccs3)n2)c1
20,1140,CCOc1ccccc1-c1noc(Cn2c(=O)n(C(C)CC)c(=O)c3ccccc32)n1 (stereo not given)
21,706,Cc1cccc(NC(=O)C2CCN(c3nnc4cccc(C)n34)CC2)c1
22,916,Cc1ccc(S(=O)(=O)N2CCC(c3nc(-c4ccccn4)no3)CC2)cc1
23,968,O=C(Nc1ccc2c(c1)CCCN2C(=O)C1CC1)c1nc2ccccc2s1
24,748,COc1ccc(-c2c(C)noc2NC(C)=O)cc1S(=O)(=O)Nc1cc(F)ccc1F
25,788,CN1c2ccc(Cl)cc2C(=O)NC12CCN(C(=O)Nc1ccc(F)cc1)CC2

# Second part, the compound before the results:
row,SMILES,RP-LC retention time [s]
1,CCC(=O)N1CCC(c2noc(CO)n2)C1 (stereo not given),545
2,O=C(NCc1cc(F)ccc1F)C1CCN(c2cncnc2N2CCCC2)CC1,653
3,O=C(Nc1cccnc1)c1ccccc1OCc1ccc(S(=O)(=O)N2CCOCC2)o1,594
4,Cc1nnsc1C(=O)N1CCC2(CC1)OCCN2S(=O)(=O)c1ccc(Cl)cc1,817
5,CCNC(=O)c1c(-c2cccnc2)noc1C,583
6,CCN1CCN(C(=O)C2CCN(c3nnc(-c4ccc(OC)cc4)o3)CC2)CC1,593
7,CCn1cnc2ccc(C(=O)NC(C)C)cc2c1=O,628
8,Cc1ccc(Cl)cc1NC(=O)N(C)CC1CCOCC1,761
9,CN(C)CC1CN(C(=O)COc2ccccc2)CC12CCOCC2 (stereo not given),599
10,O=C(NCc1ccc2c(c1)OCO2)C1CCN(C(=O)C2Sc3ccccc3NC2=O)CC1 (stereo not given),703
11,CCC1CN(C(=O)N2CCC(C(=O)NCCCN3CCCCCC3)CC2)c2ccccc2O1 (stereo not given),663
12,Cc1[nH]c(C(=O)N2CCCC(C(=O)NCCN3CCN(C)CC3)C2)c(C)c1C(=O)OC(C)C (stereo not given),598
13,O=C(CN1C(=O)CCCc2cc(S(=O)(=O)N3CCCCC3)ccc21)N1CCCCC1,819
14,CCCCNC(=O)c1ccc(-c2nc(CCN(C)C(=O)CC)no2)cc1,740
15,Cc1cc(C)cc(NC(=O)CN2C(=O)CSc3ccc(C(=O)N4CCCC4)cc32)c1,634
16,O=C(Nc1cccc(Cl)c1)N1CCN(c2cnn3c(C4CC4)nnc3c2)CC1,694
17,Cc1ccc(NS(=O)(=O)c2cc(-c3[nH]ncc3C(=O)N(C)C)oc2C)cc1F,713
18,O=C(Cc1c(Sc2cccc(F)c2)[nH]c2ccccc12)N1CCN(c2ncccn2)CC1,975
19,CCOC(=O)Cc1[nH]nc2ccc(F)cc12,697
20,COc1ccc(-n2nnc(C(=O)O)c2C)cc1OC,628

row,SMILES,RP-LC retention time [s]
1,COc1c(C)cc(S(=O)(=O)NCCN2CCOCC2)c(C)c1C,568
2,O=C(Cn1nc2c(N3CCCCCC3)nccn2c1=O)Nc1cc(F)ccc1F,731
3,COc1ccc(OC)c(S(=O)(=O)NCC2(C)CCOCC2)c1,686
4,Cc1ccc2c(c1)C(O)(CC(=O)c1ccc(NC(=O)C(C)(C)C)cc1)C(=O)N2 (stereo not given),747
5,CCN1C(=O)C(CC(=O)NCC(C)C)Sc2ncccc21 (stereo not given),689
6,COc1ccc2c(C)c(CCC(=O)N[C@H](CC(C)C)C(=O)O)c(=O)oc2c1C,781
7,CCn1ccc(C(=O)NC(C(=O)N2CCCc3ccccc32)c2ccccc2)n1 (stereo not given),967
8,O=C(CN1C(=O)COc2ccc(C(=O)N3CCCCC3)cc21)N1CCc2ccccc2C1,788
9,Cc1c(CNCCN(C)C)c(C(=O)O)c(C)n1Cc1ccccc1F,591
10,C=CCSc1nc2ccccc2c2nc(C)nn12,982
11,O=C(NCc1csc(C2CCN(C(=O)c3cc(F)ccc3Cl)CC2)n1)C1CCC1,713
12,O=C(COc1ccccc1F)Nc1ccc2c(c1)N(C(=O)c1ccco1)CCC2,834
13,COCCN(CC1(C)CCOCC1)C(=O)NCc1ccc(F)cc1,752
14,O=C(NC1CC1)[C@@H]1C[C@H](Oc2ccccc2)CN1C(=O)CC1CCCC1,818
15,Cc1noc(CNC(=O)CSCc2ccccc2)n1,684
16,COCC(=O)NC(Cc1ccccc1)c1nc2ccccc2n1Cc1ccccc1F (stereo not given),769
17,CN1C(=O)C2CCCCN2c2ccc(C(=O)NCCN3CCCCC3)cc21 (stereo not given),609
18,CC(C)CN1CCN(C(=O)c2cn3ccnc(-c4ccccc4)c3n2)CC1,606
19,CCN(c1ccccc1)S(=O)(=O)c1cc(-c2[nH]ncc2C(=O)N2CCOCC2)oc1C,718
